Results on 21 compounds are retold here after patent publication US20120172384A1, “HETEROCYCLYLAMINOPYRIMIDINES AS KINASE INHIBITORS” (priority 2009, published 2012).

One assay addresses T1, ZAP-70 (Homo sapiens, UniProt P43403).
T1 construct: endogenous in cells
T1 sequence (P43403 1-619): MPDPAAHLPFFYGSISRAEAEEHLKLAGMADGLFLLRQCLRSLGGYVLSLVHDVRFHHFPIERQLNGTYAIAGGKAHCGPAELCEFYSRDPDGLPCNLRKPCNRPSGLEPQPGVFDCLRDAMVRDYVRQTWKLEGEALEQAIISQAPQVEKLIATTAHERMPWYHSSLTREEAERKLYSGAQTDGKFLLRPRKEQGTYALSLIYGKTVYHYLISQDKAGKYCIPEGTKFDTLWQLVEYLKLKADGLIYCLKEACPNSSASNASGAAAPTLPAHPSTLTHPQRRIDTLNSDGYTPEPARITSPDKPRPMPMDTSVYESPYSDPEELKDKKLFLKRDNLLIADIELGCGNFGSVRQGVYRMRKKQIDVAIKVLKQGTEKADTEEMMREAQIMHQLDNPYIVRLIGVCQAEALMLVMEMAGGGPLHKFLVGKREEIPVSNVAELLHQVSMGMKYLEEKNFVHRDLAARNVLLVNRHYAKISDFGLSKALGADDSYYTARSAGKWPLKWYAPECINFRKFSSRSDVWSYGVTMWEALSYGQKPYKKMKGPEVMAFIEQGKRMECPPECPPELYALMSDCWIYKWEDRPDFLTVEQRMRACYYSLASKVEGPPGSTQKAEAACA
Kind of assay: ZAP-70 kinobeads assay. In kind it is binding. The conditions noted are these: cell lysate, dot blot with ZAP-70 antibody. The procedure: The compounds of the present invention as described in the previous examples were tested in the ZAP-70 kinobeads assay as described (EP-A 1862802 and WO-A 2007/137867). Briefly, test compounds (at various concentrations) and the affinity matrix with the immobilized aminopyrido-pyrimidine ligand 24 are added to cell lysate aliquots and allowed to bind to the proteins in the lysate sample. After the incubation time the beads with captured proteins are separated from the lysate. Bound proteins are then eluted and the presence ZAP-70 is detected and quantified using a specific antibody in a dot blot procedure and the Odyssey infrared detection system.

Another assay deals with T2, JAK3 (Homo sapiens, UniProt P52333).
T2 construct: endogenous in cells
T2 sequence (P52333 1-1124): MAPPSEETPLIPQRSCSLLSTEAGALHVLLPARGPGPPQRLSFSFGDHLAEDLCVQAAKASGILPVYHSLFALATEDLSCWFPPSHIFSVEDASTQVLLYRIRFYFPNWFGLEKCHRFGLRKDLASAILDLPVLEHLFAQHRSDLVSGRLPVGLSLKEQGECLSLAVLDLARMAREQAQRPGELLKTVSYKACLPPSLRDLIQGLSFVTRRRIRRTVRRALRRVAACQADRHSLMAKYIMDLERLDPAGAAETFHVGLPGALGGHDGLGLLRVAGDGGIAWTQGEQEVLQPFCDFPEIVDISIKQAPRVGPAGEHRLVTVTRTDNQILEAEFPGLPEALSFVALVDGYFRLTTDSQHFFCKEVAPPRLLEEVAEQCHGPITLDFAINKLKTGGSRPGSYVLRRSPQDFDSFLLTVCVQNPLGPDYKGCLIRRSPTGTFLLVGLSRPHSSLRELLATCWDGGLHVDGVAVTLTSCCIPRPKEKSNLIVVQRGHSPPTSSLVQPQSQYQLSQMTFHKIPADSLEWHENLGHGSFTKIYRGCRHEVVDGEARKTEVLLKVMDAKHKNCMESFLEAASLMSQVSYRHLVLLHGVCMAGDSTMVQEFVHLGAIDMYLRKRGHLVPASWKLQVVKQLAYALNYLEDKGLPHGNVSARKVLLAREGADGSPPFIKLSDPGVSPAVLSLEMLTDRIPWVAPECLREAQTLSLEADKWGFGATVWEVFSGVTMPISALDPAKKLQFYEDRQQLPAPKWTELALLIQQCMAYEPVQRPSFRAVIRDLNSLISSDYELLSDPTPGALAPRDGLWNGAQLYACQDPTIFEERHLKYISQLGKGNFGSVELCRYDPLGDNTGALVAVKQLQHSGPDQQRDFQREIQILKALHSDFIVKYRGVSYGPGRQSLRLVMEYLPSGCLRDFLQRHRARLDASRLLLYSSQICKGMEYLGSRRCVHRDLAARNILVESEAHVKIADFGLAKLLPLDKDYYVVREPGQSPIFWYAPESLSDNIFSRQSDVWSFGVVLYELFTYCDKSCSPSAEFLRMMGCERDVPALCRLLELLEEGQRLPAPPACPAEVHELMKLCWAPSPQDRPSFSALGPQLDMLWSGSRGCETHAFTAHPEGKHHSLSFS
Kind of assay: JAK3 kinobeads assay. In kind it is binding. Conditions: cell lysate, dot blot with JAK3 specific antibody. The gist of the method: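 In this competition pulldown, test compounds at various concentrations were incubated in cell lysate together with beads carrying an immobilized aminopyrido-pyrimidine ligand. Bead-bound proteins were eluted, and JAK3 was quantified by dot blot with a JAK3-specific antibody and infrared detection.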

Regarding `COc1ccc(Nc2nc(Nc3cn[nH]c3)ncc2F)c(NS(C)(=O)=O)c1` [Example 24, N-(2-(2-(1H-pyrazol-4-ylamino)-5-fluoropyrimidin-4-ylamino)-5-methoxyphenyl)methanesulfonamide], the IC50 (usually the concentration that gives 50% inhibition) was 100 to 1000 nM against ZAP-70 and at most 100 nM against JAK3.
On to `COc1ccc(Nc2nc(Nc3cc(C)nn3C)ncc2Cl)c(NS(C)(=O)=O)c1` [Example 8, N-(2-(5-chloro-2-(1,3-dimethyl-1H-pyrazol-5-ylamino)pyrimidin-4-ylamino)-5-methoxyphenyl)methanesulfonamide], for which the 50% inhibitory concentration (IC50) against ZAP-70 and against JAK3 was at most 100 nM throughout.
On to `Cn1ccc(Nc2ncc(F)c(Nc3ccccc3NS(C)(=O)=O)n2)n1` [Example 1, N-(2-(5-fluoro-2-(1-methyl-1H-pyrazol-3-ylamino)pyrimidin-4-ylamino)phenyl)methanesulfonamide], for which the IC50 at ZAP-70 is 1000 to 10000 nM; on JAK3 it was 100 to 1000 nM.
Regarding `CCn1nc(C)cc1Nc1ncc(Cl)c(Nc2ccc(OC)cc2NS(C)(=O)=O)n1` [Example 12, N-(2-(5-chloro-2-(1-ethyl-3-methyl-1H-pyrazol-5-ylamino)pyrimidin-4-ylamino)-5-methoxyphenyl)methanesulfonamide], the IC50 against ZAP-70 was at most 100 nM; against JAK3, 100 to 1000 nM.
With `Cc1nn(C)cc1Nc1ncc(F)c(Nc2ccccc2NS(C)(=O)=O)n1` [Example 30, N-(2-(2-(1,3-dimethyl-1H-pyrazol-4-ylamino)-5-fluoropyrimidin-4-ylamino)phenyl)methanesulfonamide], the 50% inhibitory concentration (IC50) against ZAP-70 and against JAK3 was 100 to 1000 nM in each case.
With `COc1ccc(Nc2nc(Nc3cn(C)nc3C)ncc2F)c(NS(C)(=O)=O)c1` [Example 32, N-(2-(2-(1,3-dimethyl-M-pyrazol-4-ylamino)-5-fluoropyrimidin-4-ylamino)-5-methoxyphenyl)methanesulfonamide], the IC50 against ZAP-70 and on JAK3 was 100 to 1000 nM throughout.
As for `COc1ccc(Nc2nc(Nc3ccon3)ncc2Cl)c(NS(C)(=O)=O)c1` [Example 3, N-(2-(5-chloro-2-(isoxazol-3-ylamino)pyrimidin-4-ylamino)-5-methoxyphenyl)methanesulfonamide], the IC50 was 100 to 1000 nM against ZAP-70 and at most 100 nM against JAK3.
For `COc1ccc(Nc2nc(Nc3nonc3OC)ncc2Cl)c(NS(C)(=O)=O)c1` [Example 17, N-(2-(5-chloro-2-(4-methoxy-1,2,5-oxadiazol-3-ylamino)pyrimidin-4-ylamino)-5-methoxyphenyl)methanesulfonamide], the IC50 on ZAP-70 and at JAK3 was 1000 to 10000 nM in each case.
`COc1ccc(Nc2nc(Nc3ccnn3C)ncc2Cl)c(NS(C)(=O)=O)c1` [Example 5, N-(2-(5-chloro-2-(1-methyl-1H-pyrazol-5-ylamino)pyrimidin-4-ylamino)-5-methoxyphenyl)methanesulfonamide]: the IC50 against ZAP-70 was at most 100 nM; against JAK3, 100 to 1000 nM.
With `CCn1cc(Nc2ncc(F)c(Nc3ccccc3NS(C)(=O)=O)n2)c(C)n1` [Example 37, N-(2-(2-(1-ethyl-3-methyl-1H-pyrazol-4-ylamino)-5-fluoropyrimidin-4-ylamino)phenyl)methanesulfonamide], the IC50 was 1000 to 10000 nM against ZAP-70 and 100 to 1000 nM against JAK3.
For the compound `CCn1ncc(Nc2ncc(Cl)c(Nc3ccc(OC)cc3NS(C)(=O)=O)n2)c1C` [Example 77, N-(2-((5-chloro-2-((1-ethyl-5-methyl-1H-pyrazol-4-yl)amino)pyrimidin-4-yl)amino)-5-methoxyphenyl)methanesulfonamide], the IC50 against ZAP-70 is at most 100 nM; against JAK3 it was 100 to 1000 nM.
The corresponding values for `CCn1cc(Nc2ncc(Cl)c(Nc3ccccc3NS(C)(=O)=O)n2)c(C)n1` [Example 33, N-(2-(5-chloro-2-(1-ethyl-3-methyl-M-pyrazol-4-ylamino)pyrimidin-4-ylamino)phenyl)methanesulfonamide] are 100 to 1000 nM and at most 100 nM.
Regarding `COc1ccc(Nc2nc(Nc3cnn(C)c3)ncc2F)c(NS(C)(=O)=O)c1` [Example 21, N-(2-(5-fluoro-2-(1-methyl-1H-pyrazol-4-ylamino)pyrimidin-4-ylamino)-5-methoxyphenyl)methanesulfonamide], the values for the IC50 on ZAP-70 and at JAK3 were 100 to 1000 nM and at most 100 nM, respectively.
In the case of `COc1ccc(Nc2nc(Nc3cnn(C)c3)ncc2Cl)c(NS(C)(=O)=O)c1` [Example 6, N-(2-(5-chloro-2-(1-methyl-1H-pyrazol-4-ylamino)pyrimidin-4-ylamino)-5-methoxyphenyl)methanesulfonamide], the IC50 against ZAP-70 and against JAK3 was at most 100 nM throughout.
With `COc1ccc(Nc2nc(Nc3ccon3)ncc2F)c(NS(C)(=O)=O)c1` [Example 36, N-(2-(5-fluoro-2-(isoxazol-3-ylamino)pyrimidin-4-ylamino)-5-methoxyphenyl)methanesulfonamide], the IC50 on ZAP-70 was 1000 to 10000 nM; at JAK3 it was 100 to 1000 nM.
For `COCCn1nc(C)cc1Nc1ncc(Cl)c(Nc2ccc(OC)cc2NS(C)(=O)=O)n1` [Example 96, N-(2-((5-chloro-2-((1-(2-methoxyethyl)-3-methyl-1H-pyrazol-5-yl)amino)pyrimidin-4-yl)amino)-5-methoxyphenyl)methanesulfonamide], the figures for the IC50 against ZAP-70 and at JAK3 were 100 to 1000 nM and 1000 to 10000 nM, respectively.
For the compound `COc1ccc(Nc2nc(Nc3ccn(C)n3)ncc2F)c(NS(C)(=O)=O)c1` [Example 7, N-(2-(5-fluoro-2-(1-methyl-1H-pyrazol-3-ylamino)pyrimidin-4-ylamino)-5-methoxyphenyl)methanesulfonamide], the IC50 against ZAP-70 and at JAK3 was 100 to 1000 nM in each case.
`Cn1ccc(Nc2ncc(Br)c(Nc3ccccc3NS(C)(=O)=O)n2)n1` [Example 43, N-(2-((5-bromo-2-((1-methyl-1H-pyrazol-3-yl)amino)pyrimidin-4-yl)amino)phenyl)methanesulfonamide]: the IC50 on ZAP-70 is 100 to 1000 nM; against JAK3, at most 100 nM.
As to `CCn1cc(Nc2ncc(F)c(Nc3ccc(OC)cc3NS(C)(=O)=O)n2)c(C)n1` [Example 34, N-(2-(2-(1-ethyl-3-methyl-1H-pyrazol-4-ylamino)-5-fluoropyrimidin-4-ylamino)-5-methoxyphenyl)methanesulfonamide], the IC50 on ZAP-70 and at JAK3 was 100 to 1000 nM in each case.
For `COc1ccc(Nc2nc(Nc3cnn(C)c3C)ncc2Cl)c(NS(C)(=O)=O)c1` [Example 67, N-(2-((5-chloro-2-((1,5-dimethyl-1H-pyrazol-4-yl)amino)pyrimidin-4-yl)amino)-5-methoxyphenyl)methanesulfonamide], the IC50 on ZAP-70 is at most 100 nM; on JAK3, 100 to 1000 nM.
Take `COc1ccc(Nc2nc(Nc3c[nH]nc3C)ncc2Cl)c(NS(C)(=O)=O)c1` [Example 2, N-(2-(5-chloro-2-(3-methyl-1H-pyrazol-4-ylamino)pyrimidin-4-ylamino)-5-methoxyphenyl)methanesulfonamide]: the IC50 on ZAP-70 and against JAK3 was at most 100 nM each time.
